{"source": "patent US8614240B2", "about": "“Benzoxazole derivatives having inhibitory activity against interleukin-6, preparation method thereof, and pharmaceutical composition containing the same” (EWHA University-Industry Collaboration Foundation, priority 2010, dated 2013)", "key": {"[1]": {"test_system": "IL-6 induced STAT3 phosphorylation", "assay": "Test for inhibitory activity against STAT3 phosphorylation induced by IL-6 (Western blot, HepG2)", "assay_type": "cell-based, human", "conditions": "HepG2, 1, 3, 10, 30, 100 ug/ml, 10 ng/ml IL-6 (FIG. 4)", "description": "HepG2 cells were divisionally inoculated in 6-well plate in the ratio of 5×10^4 cells/well, and grown to be 80% confluent. After changing to a serum-free medium and incubating for 6 hours, cells were pre-treated with the samples for one hour. […] Then the mixture was centrifuged (13,000×g, 15 minutes) to obtain a lysate as the supernatant. Herein, HepG2 cells not treated with IL-6 and the samples were used as the control group. The concentration of proteins was quantified by means of Bio-Rad DC protein assay kit, and the protein was loaded on 10% SDS-polyacrylamide gel (SDS-PAGE) and electrophoresed at 30 mA for 2 hours. After completion of the electrophoresis, the protein on gel was transcribed into PVDF membrane (Westran® S, pore size […]) at 90V for 90 minutes, and the transcribed membrane was blocked with Tris-buffered solution (T-TBS; 50 mM Tri-HCl, pH 7.6, 150 mM NaCl, 0.2% Tween-20, 5% skim milk) at 4° C. for 12 hours, and washed five time with T-TBS. The membrane was treated with polyclonal antibodies of phospho-STAT3 (1:1000 dilutions, respectively) as the primary antibody for 2 hours. After washing five times with T-TBS, the membrane was reacted with HRP-conjugated anti-rabbit antibody (1:5000 dilutions) as the secondary antibody for one hour. After washing with T-TBS, the film was developed in the dark room by means of ECL."}, "Respective cell lines": {"test_system": "Respective cell lines", "assay": "Cytotoxicity assay (MTT)", "assay_type": "cell-based", "conditions": "48 hours", "description": "In testing the compounds in cell lines, if cells are killed due to a toxicity of the compounds at the treatment concentration, a significant result cannot be obtained. Therefore, the toxicity assay was conducted by treatment with the compounds as follows. Respective cell lines were maintained on 96-well cell culture plate in the medium comprising 10% FBS with 1% Penicillin G/streptomycin, and then incubated under 37° C., 5% CO2 condition. All the experiments were repeated three times. The samples were properly diluted, and then cells were treated with the diluted samples at the concentrations of 1, 3, 10, 30, 100 μg/ml. After 48 hours, 10% (v/v) 5 mg/mL 3-(4,5-dimethylthiazol-2-yl)-2,5-diphenyltetrazolium bromide (MTT; Sigma) was added to the cell culture. After 3 hours of the incubation, the medium was aspirated and washed with PBS. After adding DMSO (100 μl), the mixture was gently agitated for 5 minutes. The absorbance was measured at 570 nm by means of VERSA max microplate reader (Molecular Devices Inc.), and the average absorbance (±SE) values as obtained from three experiments were compared with t-test, a statistical significance of P<0.05. When Compounds 1 and 3 were used at the concentrations of 1, 3, 10, 30, 100 μg/ml, the survival rates of cells were 94, 76, 70, 67, 30%, respectively, by the treatment with Compound 1, and 74, 71, 65, 57, 19%, respectively, by the treatment with Compound 3. It means that at least 50% of cells survive at the concentration (for example, 30 μg/ml) of the compounds of the present invention for measuring IL-6 inhibitory activity."}, "[2]": {"test_system": "Zymosan A-induced paw inflammation in C57BL/6 mice", "assay": "Zymosan A-induced paw inflammation, effect of alleviating the inflammation", "assay_type": "in vivo, mouse", "conditions": "for Difference between the thicknesses of the right paw and left paw: Zymosan and 30 mg/kg Compound 3 into right paw", "description": "For this experiment, C57BL/6 mice were obtained from Central Lab. Animal Inc., and acclimated for one week and then used in the experiment. The gender of animals used in the experiment was female, and 4 mice were used in each of the control group and the test group (Doe group). To experiment Compound 3's effect of alleviating the inflammation, the thicknesses of paws having the inflammation is reduced by injecting 3 mg of Zymosan A and 30 mg/kg of Compound 3 into right paws of the experimental animals, and both the paw thicknesses in the control group to which Zymosan A was administered to induce the inflammation and the control group having no treatment were measured every day, and the results are as shown in FIG. 7.\nWhen the paw thickness was measured every day after inducing the inflammatory reaction by Zymosan, a difference between the thicknesses of the right paw and left paw was 8.5, 7.0, 6.5, 5.5, 5.6 mm. It could be identified that by treatment with Zymosan and Compound 3 the inflammatory reaction was alleviated so that a difference between paw thicknesses was 6.0, 3.0, 2.0, 1.9, 1.8 mm. A difference between paw thicknesses could also be identified in real photographs of the group treated only with Zymosan, the test group treated with Zymosan and Compound 3, and the control group having no treatment of the experimental animals on the 6th day in the inflammation alleviating assay (FIG. 8)."}}, "data": [{"smiles": "CCc1ccc(Nc2nc3cc(NC(=O)c4ccccc4)ccc3o2)cc1", "note": "[Compound 3, N-(2-(4-ethylphenylamino)benzo[d]oxazol-5-yl)benzamide]", "values": [{"measurement": "Inhibitory activity on IL-6 induced STAT3 phosphorylation", "setting": "[1]", "result": "inhibited IL-6 expression in a concentration-dependent manner"}, {"measurement": "Survival rate of cells", "setting": "Respective cell lines; 1 μg/ml", "result": 74, "unit": "%"}, {"measurement": "Survival rate of cells", "setting": "Respective cell lines; 3 μg/ml", "result": 71, "unit": "%"}, {"measurement": "Survival rate of cells", "setting": "Respective cell lines; 10 μg/ml", "result": 65, "unit": "%"}, {"measurement": "Survival rate of cells", "setting": "Respective cell lines; 30 μg/ml", "result": 57, "unit": "%"}, {"measurement": "Survival rate of cells", "setting": "Respective cell lines; 100 μg/ml", "result": 19, "unit": "%"}, {"measurement": "Effect of alleviating the inflammation", "setting": "[2]; 30 mg/kg, Zymosan A-induced paw inflammation (FIGS. 7, 8)", "result": "exhibited the effect of alleviating the inflammation"}, {"measurement": "Difference between the thicknesses of the right paw and left paw", "setting": "[2]; 1st daily measurement", "result": 6.0, "unit": "mm"}, {"measurement": "Difference between the thicknesses of the right paw and left paw", "setting": "[2]; 2nd daily measurement", "result": 3.0, "unit": "mm"}, {"measurement": "Difference between the thicknesses of the right paw and left paw", "setting": "[2]; 3rd daily measurement", "result": 2.0, "unit": "mm"}, {"measurement": "Difference between the thicknesses of the right paw and left paw", "setting": "[2]; 4th daily measurement", "result": 1.9, "unit": "mm"}, {"measurement": "Difference between the thicknesses of the right paw and left paw", "setting": "[2]; 5th daily measurement", "result": 1.8, "unit": "mm"}]}]}
